Holding throughout (format): binding
In one test the target is T1, Pellino 2 FHA (Homo sapiens, UniProt Q9HAT8).
T1 construct: PELI1 and 2 FHA domains (residues 13–273 and 15–275, respectively); GST (N, cleaved yes); made in house; host or cells: E. coli BL21 (DE3)
T1 sequence (Q9HAT8 15-275): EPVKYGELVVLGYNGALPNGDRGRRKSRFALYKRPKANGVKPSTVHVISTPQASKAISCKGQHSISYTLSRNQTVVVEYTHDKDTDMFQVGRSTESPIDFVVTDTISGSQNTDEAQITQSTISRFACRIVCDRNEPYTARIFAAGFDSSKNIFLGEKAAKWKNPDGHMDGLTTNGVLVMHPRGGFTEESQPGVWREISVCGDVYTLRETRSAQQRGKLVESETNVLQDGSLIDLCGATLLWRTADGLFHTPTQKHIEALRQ
The experiment in a line: Isothermal titration calorimetry of phosphopeptides with PELI2 FHA fragment. Conditions: for DG: ITC Gibbs free energy; for DG / DH / TDS: PELI2 FHA; for DH: ITC change in enthalpy; for TDS: ITC temperature x change in entropy. The protocol:
(§1) The regions corresponding to the PELI1 and 2 FHA domains (residues 13–273 and 15–275, respectively) were cloned into the pGEX-6P1 vector using BamHI/XhoI restriction sites and expressed as a 3C protease-cleavable N-terminal GST fusion protein in BL21 (DE3) cells (NEB). A 20 ml LB overnight culture was inoculated into 1L of LB medium supplemented with 100 μg/ml ampicillin to an OD600 of 0.05 and incubated at 37°C, 250 rpm until an OD600 of 0.6 was reached, whereupon expression was induced with 1 mM isopropyl ß-D-1-thiogalactopyranoside (IPTG) and overnight incubation at 18°C. Overnight cultures were harvested for 20 min at 4,000g, 4°C and resuspended in 20 ml lysis buffer (50 mM HEPES pH 7.5, 150 mM NaCl, 0.2 mg/ml lysozyme, 20 μg/ml DNase, and 1x complete, EDTA-free protease inhibitor cocktail tablet) before sonication-mediated cell lysis. Insoluble material was removed by centrifugation (21,000g, 20 min) and the GST-FHA fusion proteins were purified from the clarified lysate containers using 1 ml bed volume of pre-equilibrated Glutathione Sepharose 4B beads. After washing with 20 column volumes of Pellino FHA buffer (50 mM HEPES pH 7.5, 150 mM NaCl), the protein was cleaved overnight at 4°C from GST with 1% (vol/vol) GST-3C protease and the flow-through was further purified by gel filtration using a HiLoad 16/60 Superdex 200 pg (Cytiva) column. Purified Pellino FHA domains were concentrated to 50 mg/ml with a 10 kD molecular weight cut-off concentrator (Sartorius).
(§2) For ITC analysis protein and peptides were buffer exchanged into 25 mM HEPES pH 7.0, 200 mM NaCl, 1 mM TCEP. Titrations were carried out using a Microcal PEAQ-ITC (Malvern) using 13 injections of peptide at a typical syringe concentration of 160 μM (1 × 0.4 μl, 12 × 3.0 μl) and FHA concentration of 16 μM in the cell. Data were analyzed with a single-site binding model using Microcal PEAQ-ITC software. Peptide sequences are: MDC1 pT699–AYDLQApTQCFA, MDC1-pT719–[…], MDC1-pT752–AYEVLApTQPFC, MDC1-pT765–AYEDSEpTQPFD, IRAK-pT141(+3Y)–AYSSASpTFLYP, γH2AX–GGKATQApSQEY. All peptides were synthesises with N-terminal acetylation and a C-terminal amide. MDC1 pT699 and pT719 were made with alanine substitutions at the pT+4 position (Leu and Met, respectively) to aid solubility and monodispersity.

Another test addresses T2, Pellino 1 FHA (Homo sapiens, UniProt Q96FA3).
T2 construct: PELI1 and 2 FHA domains (residues 13–273 and 15–275, respectively); GST (N, cleaved yes); made in house; host or cells: E. coli BL21 (DE3)
T2 sequence (Q96FA3 13-273): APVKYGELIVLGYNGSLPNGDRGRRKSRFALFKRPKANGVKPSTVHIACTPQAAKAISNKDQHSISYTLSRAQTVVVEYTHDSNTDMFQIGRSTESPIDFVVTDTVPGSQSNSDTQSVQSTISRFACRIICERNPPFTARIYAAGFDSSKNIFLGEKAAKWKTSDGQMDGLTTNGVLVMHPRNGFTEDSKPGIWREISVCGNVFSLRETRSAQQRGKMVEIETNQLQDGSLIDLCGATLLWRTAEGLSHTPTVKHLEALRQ
Description: Isothermal titration calorimetry of phosphopeptides with PELI1 FHA fragment. To be noted: for DG: ITC Gibbs free energy; for DG / DH / TDS: PELI1 FHA; for DG / DH / TDS / Kd: 25 mM HEPES pH 7.0, 200 mM NaCl, 1 mM TCEP; for DH: ITC change in enthalpy; for TDS: ITC temperature x change in entropy; for Kd: PELI1 FHA (residues 13–273) 16 μM in cell, peptide 160 μM in syringe, single-site binding model. The protocol:
as §1, §2

A further test addresses T3, MDC1 BRCT-r (Homo sapiens, UniProt Q14676).
T3 sequence (Q14676 1883-2089 limits assumed): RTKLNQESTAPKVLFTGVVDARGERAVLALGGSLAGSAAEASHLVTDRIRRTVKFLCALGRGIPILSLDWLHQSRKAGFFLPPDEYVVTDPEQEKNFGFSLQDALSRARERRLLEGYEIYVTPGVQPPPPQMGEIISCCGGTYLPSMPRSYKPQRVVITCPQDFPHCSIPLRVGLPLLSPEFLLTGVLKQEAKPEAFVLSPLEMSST
The experiment in a line: Isothermal titration calorimetry of γH2AX phosphopeptide with MDC1 BRCT-repeat fragment. The procedure: as §2

Where [1] appears, read: 25 mM HEPES pH 7.0, 200 mM NaCl, 1 mM TCEP.

“Also recorded” adds a separate entry of the source. Like-named read-outs stand apart in the source and are kept apart here. Square brackets hold non-standard residues; d marks the D form. Peptide text beside a SMILES is read from it. pT = C[C@@H](OP(=O)(O)O)[C@H](N)C(=O)O; pS = N[C@@H](COP(=O)(O)O)C(=O)O

On Pellino 2 FHA (setting [1]), `CC(=O)N[C@@H](C)C(=O)N[C@@H](Cc1ccc(O)cc1)C(=O)N[C@@H](CC(=O)O)C(=O)N[C@@H](CC(C)C)C(=O)N[C@@H](CCC(N)=O)C(=O)N[C@@H](C)C(=O)N[C@H](C(=O)N[C@@H](CCC(N)=O)C(=O)N[C@@H](CS)C(=O)N[C@@H](Cc1ccccc1)C(=O)N[C@@H](C)C(N)=O)[C@@H](C)OP(=O)(O)O` [MDC1-pT699] (Ac-AYDLQA[pT]QCFA-NH2) displayed a DG of -34.0 kJ/mol, a DH of -83.4 kJ/mol and a TDS of -49.4 kJ/mol. At Pellino 1 FHA, this molecule displayed a DG of -32.5 kJ/mol, a DH of -77.5 kJ/mol and a TDS of -44.9 kJ/mol.
Molecule `CC(=O)NCC(=O)NCC(=O)N[C@@H](CCCCN)C(=O)N[C@@H](C)C(=O)N[C@H](C(=O)N[C@@H](CCC(N)=O)C(=O)N[C@@H](C)C(=O)N[C@@H](COP(=O)(O)O)C(=O)N[C@@H](CCC(N)=O)C(=O)N[C@@H](CCC(=O)O)C(=O)N[C@@H](Cc1ccc(O)cc1)C(N)=O)[C@@H](C)O` [Peptide H2AX-pS139, reference compound] (Ac-GGKATQA[pS]QEY-NH2) had a DG at MDC1 BRCT-r (ITC Gibbs free energy, MDC1 BRCT-r) of -34.6 kJ/mol. This molecule gave a DH at MDC1 BRCT-r (ITC change in enthalpy, MDC1 BRCT-r) of -58.2 kJ/mol. Also, the TDS at MDC1 BRCT-r (ITC temperature x change in entropy, MDC1 BRCT-r) was -23.5 kJ/mol. The Kd on MDC1 BRCT-r (ITC, MDC1 BRCT-repeat fragment, 25 mM HEPES pH 7.0, 200 mM NaCl, 1 mM TCEP, single-site binding model) was 850 nM; at Pellino 2 FHA (ITC, PELI2 FHA (residues 15–275) 16 μM in cell, peptide 160 μM in syringe, 25 mM HEPES pH 7.0, 200 mM NaCl, 1 mM TCEP, single-site binding model), “N.D.B”; at Pellino 1 FHA (ITC), “N.D.B”. For the same molecule, the “interaction detected by ITC (in words)” value at MDC1 BRCT-r (ITC, purified MDC1 BRCT-repeat fragment, listed as γH2AX phosphopeptide) is “bound tightly; also recorded: tight binding”; on Pellino 2 FHA (ITC, N-terminal PELI2 fragment, listed as γH2AX phosphopeptide) it was “did not detect any interaction; also recorded: no detectable interactions”; on Pellino 1 FHA (ITC, N-terminal PELI1 fragment (13–273), listed as γH2AX phosphopeptide), “did not detect any interaction; also recorded: no detectable interactions”.
Take `CC(=O)N[C@@H](C)C(=O)N[C@@H](Cc1ccc(O)cc1)C(=O)N[C@@H](CCC(=O)O)C(=O)N[C@H](C(=O)N[C@@H](CC(C)C)C(=O)N[C@@H](C)C(=O)N[C@H](C(=O)N[C@@H](CCC(N)=O)C(=O)N1CCC[C@H]1C(=O)N[C@@H](Cc1ccccc1)C(=O)N[C@@H](CS)C(N)=O)[C@@H](C)OP(=O)(O)O)C(C)C` [MDC1-pT752] (Ac-AYEVLA[pT]QPFC-NH2): on Pellino 2 FHA (setting [1]), the DG was -34.1 kJ/mol, the DH was -118 kJ/mol and the TDS was -83.7 kJ/mol. Besides, at Pellino 1 FHA, the DG is -33.9 kJ/mol, the DH was -77.2 kJ/mol and the TDS is -43.3 kJ/mol. Moreover, the Kd on Pellino 1 FHA (ITC, read-out: Kd) was 1140 nM.
At Pellino 2 FHA (setting [1]), `CC(=O)N[C@@H](C)C(=O)N[C@@H](Cc1ccc(O)cc1)C(=O)N[C@@H](CCC(=O)O)C(=O)N[C@@H](CC(=O)O)C(=O)N[C@@H](CO)C(=O)N[C@@H](CCC(=O)O)C(=O)N[C@H](C(=O)N[C@@H](CCC(N)=O)C(=O)N1CCC[C@H]1C(=O)N[C@@H](Cc1ccccc1)C(=O)N[C@@H](CC(=O)O)C(N)=O)[C@@H](C)OP(=O)(O)O` [MDC1-pT765] (Ac-AYEDSE[pT]QPFD-NH2) registered a DG of -36.7 kJ/mol, a DH of -137 kJ/mol and a TDS of -100 kJ/mol. At Pellino 1 FHA, the DG is -38.0 kJ/mol, the DH is -92.1 kJ/mol and the TDS was -54.1 kJ/mol. Moreover, the dissociation constant (Kd) on Pellino 1 FHA (ITC, read-out: Kd) was 230 nM. Besides, the “tighter affinity than the other TQXF phosphopeptides” value on Pellino 1 FHA (ITC, compared with the other MDC1 TQXF phosphopeptides) is reported as 5–10 fold.
At Pellino 2 FHA (setting [1]), `CC(=O)N[C@@H](C)C(=O)N[C@@H](Cc1ccc(O)cc1)C(=O)N[C@@H](CCC(=O)O)C(=O)N[C@@H](CC(=O)O)C(=O)N[C@@H](CCC(=O)O)C(=O)N1CCC[C@H]1C(=O)N[C@H](C(=O)N[C@@H](CCC(N)=O)C(=O)N[C@@H](C)C(=O)N[C@@H](Cc1ccccc1)C(=O)N[C@@H](C)C(N)=O)[C@@H](C)OP(=O)(O)O` [MDC1-pT719] (Ac-AYEDEP[pT]QAFA-NH2) gave a DG of -33.8 kJ/mol, a DH of -145 kJ/mol and a TDS of -111 kJ/mol. On Pellino 1 FHA, this molecule yielded a DG of -34.0 kJ/mol, a DH of -91.2 kJ/mol and a TDS of -57.3 kJ/mol. Besides, the Kd on Pellino 1 FHA (ITC, read-out: Kd) stood at 1140 nM.

The values are drawn from article PMC11884936, “MDC1 mediates Pellino recruitment to sites of DNA double-strand breaks” (Life Science Alliance, 2025).
